# Results from PMC9127750, “Structure-based design of CDC42 effector interaction inhibitors for the treatment of cancer” (Cell reports, 2022).
# Where “and” joins values, the source holds several entries; their conditions need not be identical. Equal values may be shown once.
# System: WM3248 melanoma cells, 486 antibodies
# Assay: Reverse phase protein arrays (RPPA)
# Format: cell-based, Human
# Conditions: 20, normalized to 0
# Description: Pellets were snap frozen in liquid nitrogen and shipped to MD Anderson Cancer Center core RPPA facility for RPPA analysis (Table S5). Three biological replicates for each sample were generated.
# Nomenclatures on the RPPA heatmaps: name_of_antibody.species_of_antibody.status_of_antibody. V - antibody validated; C - validation of antibody in progress; Q - antibody nonspecific; E – under evaluation; antibodies raised in M - mouse, G - goat, R - rabbit, or T - rat.
compound,measurement,setting,value
"CN(C)c1cccc(Nc2cc(-c3ccccc3)nc(C3CCNCC3)n2)c1 [ARN22089, N1,N1-dimethyl-N3-(6-phenyl-2-(piperidin-4-yl)pyrimidin-4-yl)benzene-1,3-diamine]",HER2.M.V Norm_20 Average,average,0.995
same,HER2_pY1248.R.V Norm_20 Average,average,1.030
same,HER3.R.V Norm_20 Average,average,0.904
same,HER3_pY1289.R.C Norm_20 Average,average,1.084
same,Heregulin.R.V Norm_20 Average,average,1.046
same,eEF2.R.C Norm_20 Average,average,1.639
same,eEF2K.R.V Norm_20 Average,average,1.409
same,eIF4E.R.V Norm_20 Average,average,1.114
same,eIF4G.R.C Norm_20 Average,average,1.165
same,DNMT1.R.V Norm_20,replicates 1-3,0.937 and 0.801
same,DRP1.R.V Norm_20,replicates 1-3,1.019 and 0.894 and 0.979
same,DUSP4.R.V Norm_20,replicates 1-3,0.537 and 0.626 and 1.006
same,DUSP6.R.C Norm_20,replicates 1-3,1.405 and 1.064 and 2.195
same,DYRK1B.R.C Norm_20,replicates 1-3,0.868 and 0.959 and 0.907
same,Dvl3.R.V Norm_20,replicates 1-3,0.990 and 1.118 and 0.985
same,E2F1.R.V Norm_20,replicates 1-3,1.446 and 1.251
same,E.Cadherin.R.V Norm_20,replicates 1-3,0.696 and 0.873 and 0.994
same,EGFR.R.V Norm_20,replicates 1-3,1.083 and 1.189 and 1.125
same,EGFR_pY1068.R.C Norm_20,replicates 1-3,0.892 and 0.889 and 0.961
same,EGFR_pY1173.R.V Norm_20,replicates 1-3,1.079 and 1.019 and 1.046
same,EMA.M.C Norm_20,replicates 1-3,0.566 and 0.868 and 0.914
same,ENY2.M.C Norm_20,replicates 1-3,0.866 and 0.944 and 1.047
same,ER.a.R.V Norm_20,replicates 1-3,0.939 and 0.862 and 1.078
same,ER.a_pS118.R.V Norm_20,replicates 1-3,1.167 and 1.838 and 0.928
same,ERCC1.R.C Norm_20,replicates 1-3,0.964 and 0.974
same,ERCC5.R.C Norm_20,replicates 1-3,1.290 and 0.989 and 1.051
same,ERRalpha.R.V Norm_20,replicates 1-3,0.831 and 1.056 and 1.002
same,EVI1.R.V Norm_20,replicates 1-3,0.975 and 0.917
same,Enolase.1.R.V Norm_20,replicates 1-3,1.030 and 1.152
same,Enolase.2.R.V Norm_20,replicates 1-3,0.990 and 0.970 and 0.883
same,EphA2.R.V Norm_20,replicates 1-3,0.706 and 0.773 and 0.765
same,EphA2_pS897.R.C Norm_20,replicates 1-3,0.536 and 0.635 and 0.720
same,EphA2_pY588.R.C Norm_20,replicates 1-3,0.930 and 1.018 and 0.973
same,Erk5.R.V Norm_20,replicates 1-3,0.948 and 0.789 and 1.013
same,Ets.1.R.V Norm_20,replicates 1-3,1.373 and 1.347 and 1.417
same,FABP5.R.C Norm_20,replicates 1-3,1.102 and 1.223 and 1.428
same,FAK.R.C Norm_20,replicates 1-3,0.837 and 0.917
same,FAK_pY397.R.V Norm_20,replicates 1-3,0.847 and 0.989 and 0.940
same,FANCD2.R.V Norm_20,replicates 1-3,0.831 and 0.901 and 0.823
same,FASN.R.V Norm_20,replicates 1-3,0.802 and 0.983
same,FGF.basic.R.C Norm_20,replicates 1-3,0.939 and 0.836 and 1.240
same,FN14.R.C Norm_20,replicates 1-3,1.082 and 0.902 and 1.335
same,FOXM1.R.V Norm_20,replicates 1-3,0.995 and 0.889 and 0.924
same,FOXO3.R.V Norm_20,replicates 1-3,1.160 and 1.151 and 0.915
same,FRS2.alpha_pY196.R.V Norm_20,replicates 1-3,0.925 and 1.195 and 1.058
same,FTO.R.V Norm_20,replicates 1-3,0.992
same,Fibronectin.R.V Norm_20,replicates 1-3,1.153 and 1.290 and 1.137
same,FoxO3a_pS318_S321.R.C Norm_20,replicates 1-3,1.105 and 0.940
same,G6PD.R.V Norm_20,replicates 1-3,0.877 and 1.061 and 0.923
same,GATA3.M.V Norm_20,replicates 1-3,1.203 and 1.452 and 1.301
same,GATA6.R.V Norm_20,replicates 1-3,0.945 and 0.991 and 0.928
same,GCLC.R.C Norm_20,replicates 1-3,0.882 and 0.967 and 1.220
same,GCLM.R.V Norm_20,replicates 1-3,0.988 and 1.024 and 0.965
same,GCN5L2.R.V Norm_20,replicates 1-3,0.974 and 0.944
same,GGPS1.M.V Norm_20,replicates 1-3,0.920 and 0.992 and 1.155
same,GRB2.R.V Norm_20,replicates 1-3,0.992 and 0.862 and 0.948
same,GRB7.R.V Norm_20,replicates 1-3,0.909 and 0.898
same,GSK.3B.R.C Norm_20,replicates 1-3,0.896 and 0.924
same,GSK.3a.b.M.V Norm_20,replicates 1-3,0.918 and 0.992
same,GSK.3a.b_pS21_S9.R.V Norm_20,replicates 1-3,1.411 and 1.207
same,Gab2.R.V Norm_20,replicates 1-3,1.447 and 1.019
same,Gli1.R.C Norm_20,replicates 1-3,0.898 and 0.922 and 1.028
same,Gli3.R.C Norm_20,replicates 1-3,1.237 and 1.346 and 1.321
same,Glucocorticoid.Receptor.R.V Norm_20,replicates 1-3,1.227 and 1.295 and 0.987
same,Glutamate.D1.2.R.V Norm_20,replicates 1-3,1.198
same,Glutaminase.R.C Norm_20,replicates 1-3,1.026 and 1.144 and 1.364
same,Granzyme.B.R.V Norm_20,replicates 1-3,1.284 and 1.028
same,Grp75.R.C Norm_20,replicates 1-3,1.594 and 1.052 and 0.939
same,Gys.R.V Norm_20,replicates 1-3,0.807 and 0.941 and 1.104
same,Gys_pS641.R.V Norm_20,replicates 1-3,0.671 and 0.818 and 1.079
same,H2AX_pS139.R.C Norm_20,replicates 1-3,1.188 and 2.081 and 1.030
same,H2AX_pS140.M.C Norm_20,replicates 1-3,1.001 and 1.667 and 1.028
same,HER2.M.V Norm_20,replicates 1-3,0.977 and 0.952 and 1.056
same,HER2_pY1248.R.V Norm_20,replicates 1-3,0.902 and 1.119
same,HER3.R.V Norm_20,replicates 1-3,0.864 and 0.935 and 0.913
same,HER3_pY1289.R.C Norm_20,replicates 1-3,1.059 and 1.124
same,HES1.R.V Norm_20,replicates 1-3,1.224 and 0.849 and 1.063
same,Heregulin.R.V Norm_20,replicates 1-3,1.048 and 1.050
same,eEF2.R.C Norm_20,replicates 1-3,1.328 and 1.602 and 1.986
same,eEF2K.R.V Norm_20,replicates 1-3,1.469 and 1.590 and 1.169
same,eIF4E.R.V Norm_20,replicates 1-3,1.107 and 0.843 and 1.392
